Results reported in PubChem BioAssay AID2060512 (Molecular Pharmacology Branch, DTP, NCI, 2025).
Several values for one entry are separate records, joined by “and”; a condition that tells them apart may be missing. Identical values can stand only once.

Tested on: 186277-243-T-J2-PDC complex spheroid viability
Assay: Anticancer human tumor 186277-243-T-J2-PDC patient-derived colon adenocarcinoma cell line growth inhibition [GQUAD]
Settings: for viability, T/C: stronger effect = lower value
From the text: DNA G-quadruplex Stabilizer Agents in Combinations in Complex Spheroids
A high-throughput screen of multi-cell type tumor spheroids was designed to identify active combinations of DNA G-quadruplex stabilizer agents and targeted small molecules. Complex spheroids include a stromal component modeled by human endothelial cells (HUVEC) and fibroblasts modeled by human mesenchymal stem cells (MSCs). The concentration ranges selected for each drug and investigational agent were based upon clinically achievable concentrations if the clinical Cmax of the agent was known.
Compounds. The drugs and investigational agents: pidnarulex (CX-5461; NSC782164), APTO-253 (NSC789042), BRACO-19 (NSC847499), peposertib (NSC802822), ceralasertib (NSC780249), elimusertib (NSC800525), camonsertib (NSC841442), AZD-1390 (NSC803789), olaparib (NSC753686), talazoparib (NSC767125), ART-558 (NSC835418), sotorasib (NSC818433), MRTX-1133 (NSC836407), SN-38 (NSC673596), topotecan (NSC609699), etoposide (NSC141540), doxorubicin (NSC123127), gemcitabine (NSC613327), 5-fluorouracil (NSC19893), paclitaxel (NSC125973), vemurafenib (NSC761431), panobinostat (NSC761190), R-306465 (JNJ-16241199; NSC773264), adavosertib (NSC754352), TP-3654 (NSC805149), carboplatin (NSC241240), KSQ-4279 (NSC840948), and staurosporine (NSC755774) were obtained from the National Cancer Institute (NCI) Developmental Therapeutics Program Chemical Repository (34). The FDA-approved anticancer drug set is available from the NCI Developmental Therapeutics Program. […] The stock solutions were prepared in dimethyl sulfoxide (DMSO, Sigma-Aldrich, St. Louis, MO, cat. D2650) at 800-fold the tested concentration and stored at -70 degrees C prior to their use. All drugs and investigational agents were tested over a range starting from a high concentration at or near the clinical Cmax and decreasing in half-log increments. If the clinical Cmax for an agent had not been determined, the highest concentration tested was 10 microM.
2.3 Cell Culture. All cells were maintained in an incubator at 37 degrees C and 5% CO2 with 95% humidity. The PDC lines were cultured according to standard operating procedures established by the NCI PDMR. All PDCs were thawed and cultured in Matrigel-coated flasks prepared with a working solution of 1X Ham's F-12 nutrient mix, without supplementation (Invitrogen, cat. 11765054), 100 U/mL penicillin-streptomycin (Invitrogen, cat. 15140122), and 2.5% Matrigel (Corning Inc., cat. 354248) for the first three passages. The 857933-349-R-J2-PDC line was cultured in 6C/Colon 1B media, which includes advanced DMEM/F-12 (Thermo Fisher Scientific, cat. 12634028), 10 mM HEPES (Thermo Fisher Scientific, cat. 15630080), 1X GlutaMAX supplement (Thermo Fisher Scientific, cat. 35050061), 0.1 mg/mL primocin (InvivoGen, cat. ant-pm-2), 10% defined fetal bovine serum, heat inactivated (HyClone Laboratories Inc., cat. SH30070.03HI), 50% L-WRN conditioned media (ATCC, cat. CRL-3276), 1.25 mM N-Acetyl-L-cysteine (Sigma-Aldrich, cat. A9165), 10 mM nicotinamide (Sigma-Aldrich, cat. N0636), 1X B-27 supplement (Thermo Fisher Scientific, cat. 17504044), 1X N-2 supplement (Thermo Fisher Scientific, cat. 17502048), 10 microM Y-27632 dihydrochloride (Tocris Bioscience, cat. 1254), and 50 ng/mL human EGF recombinant protein (Thermo Fisher Scientific, cat. PHG0311). The 485176-168-R4-J1-PDC line was cultured in Panc media, which includes all 6C/Colon 1B media components plus 100 ng/mL human FGF-10 (Thermo Fisher Scientific, cat. 100-26), 500 nM SB-431542 (Selleckchem, cat. S1067), and gastrin (Tocris, cat. 3006).
[…]

[1] = curve of first compound, second compound 0.0316 µM
[2] = curve of first compound, second compound 0.1 µM
[3] = curve of first compound, second compound 0.316 µM
[4] = curve of first compound, second compound 1 µM
[5] = curve of first compound, second compound 3.16 µM
[6] = curve of first compound, second compound 10 µM
[7] = second compound 0.0316 µM, first compound 0.0316 µM
[8] = second compound 0.0316 µM, first compound 0.1 µM
[9] = second compound 0.0316 µM, first compound 0.316 µM
[10] = second compound 0.0316 µM, first compound 1 µM
[11] = second compound 0.0316 µM, first compound 3.16 µM
[12] = second compound 0.0316 µM, first compound 10 µM
[13] = second compound 0.1 µM, first compound 0.0316 µM
[14] = second compound 0.1 µM, first compound 0.1 µM
[15] = second compound 0.1 µM, first compound 0.316 µM
[16] = second compound 0.1 µM, first compound 1 µM
[17] = second compound 0.1 µM, first compound 3.16 µM
[18] = second compound 0.1 µM, first compound 10 µM
[19] = second compound 0.316 µM, first compound 0.0316 µM
[20] = second compound 0.316 µM, first compound 0.1 µM
[21] = second compound 0.316 µM, first compound 0.316 µM
[22] = second compound 0.316 µM, first compound 1 µM
[23] = second compound 0.316 µM, first compound 3.16 µM
[24] = second compound 0.316 µM, first compound 10 µM
[25] = second compound 1 µM, first compound 0.0316 µM
[26] = second compound 1 µM, first compound 0.1 µM
[27] = second compound 1 µM, first compound 0.316 µM
[28] = second compound 1 µM, first compound 1 µM
[29] = second compound 1 µM, first compound 3.16 µM
[30] = second compound 1 µM, first compound 10 µM
[31] = second compound 3.16 µM, first compound 0.0316 µM
[32] = second compound 3.16 µM, first compound 0.1 µM
[33] = second compound 3.16 µM, first compound 0.316 µM
[34] = second compound 3.16 µM, first compound 1 µM
[35] = second compound 3.16 µM, first compound 3.16 µM
[36] = second compound 3.16 µM, first compound 10 µM
[37] = second compound 10 µM, first compound 0.0316 µM
[38] = second compound 10 µM, first compound 0.1 µM
[39] = second compound 10 µM, first compound 0.316 µM
[40] = second compound 10 µM, first compound 1 µM
[41] = second compound 10 µM, first compound 3.16 µM
[42] = second compound 10 µM, first compound 10 µM
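Also: spheroids exposed to drugs for 7 days.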
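For viability, T/C in this document: 100% = DMSO vehicle control viability.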

## CC(C)(O)C1CCC(Nc2ccc3ncc(-c4cccc(C(F)(F)F)c4)n3n2)CC1 (stereo unspecified) + Cc1cnc(CNC(=O)c2c(=O)c3ccc(N4CCCN(C)CC4)nc3n3c2sc2ccccc23)cn1
[1]
  IC50: 2430 nM
[2]
  IC50: 1670 nM
[3]
  IC50: 1190 nM
[4]
  IC50: < 31.6 nM
[5]
  IC50: < 31.6 nM
[6]
  IC50: < 31.6 nM
[7]
  viability, T/C: 88.7%
[8]
  viability, T/C: 85.8%
[9]
  viability, T/C: 94.4%
[10]
  viability, T/C: 75.5%
[11]
  viability, T/C: 43%
[12]
  viability, T/C: 37.2%
[13]
  viability, T/C: 81.3%
[14]
  viability, T/C: 78.1%
[15]
  viability, T/C: 77%
[16]
  viability, T/C: 59.6%
[17]
  viability, T/C: 37.9%
[18]
  viability, T/C: 34.3%
[19]
  viability, T/C: 55.5%
[20]
  viability, T/C: 49.5%
[21]
  viability, T/C: 66.8%
[22]
  viability, T/C: 54.2%
[23]
  viability, T/C: 25.2%
[24]
  viability, T/C: 20.9%
[25]
  viability, T/C: 48.5%
[26]
  viability, T/C: 48.2%
[27]
  viability, T/C: 46.3%
[28]
  viability, T/C: 43.2%
[29]
  viability, T/C: 24.2%
[30]
  viability, T/C: 22.1%
[31]
  viability, T/C: 34.5%
[32]
  viability, T/C: 42.2%
[33]
  viability, T/C: 38.7%
[34]
  viability, T/C: 35.3%
[35]
  viability, T/C: 3.82%
[36]
  viability, T/C: 0.12%
[37]
  viability, T/C: 37.5%
[38]
  viability, T/C: 43.4%
[39]
  viability, T/C: 37.1%
[40]
  viability, T/C: 39.7%
[41]
  viability, T/C: 0.2%
[42]
  viability, T/C: 0.2%

## O=c1[nH]cc(F)c(=O)[nH]1
Compound 0.0316 µM
  viability, T/C: 94.6% and 93.4% and 110%
Compound 0.1 µM
  viability, T/C: 94.9% and 95.8% and 93.8%
Compound 0.316 µM
  viability, T/C: 104% and 108% and 112%
Compound 1 µM
  viability, T/C: 97.6% and 114% and 107%
Compound 3.16 µM
  viability, T/C: 62.5% and 75.2% and 60.1%
Compound 10 µM
  viability, T/C: 39.6% and 52.2% and 50.6%
Curve of compound
  IC50: 5940 nM and > 10000 nM

## CC1COCCN1c1cc(-c2ccnn2C)c2ccnc(-c3ccn[nH]3)c2n1 (stereo unspecified) + Cc1[nH]c2ccc(F)cc2c1-c1nc2c3cccnc3c3ncccc3c2[nH]1
[1]
  IC50: 50.5 nM
[2]
  IC50: 48.5 nM
[3]
  IC50: 50.6 nM
[4]
  IC50: < 31.6 nM
[5]
  IC50: 40.4 nM
[6]
  IC50: 33.6 nM
[7]
  viability, T/C: 74.1%
[8]
  viability, T/C: 15%
[9]
  viability, T/C: 7.54%
[10]
  viability, T/C: 5%
[11]
  viability, T/C: 5.42%
[12]
  viability, T/C: 5.79%
[13]
  viability, T/C: 70.8%
[14]
  viability, T/C: 15%
[15]
  viability, T/C: 8.57%
[16]
  viability, T/C: 5.57%
[17]
  viability, T/C: 6.67%
[18]
  viability, T/C: 6.18%
[19]
  viability, T/C: 72.2%
[20]
  viability, T/C: 17.8%
[21]
  viability, T/C: 7.48%
[22]
  viability, T/C: 5.56%
[23]
  viability, T/C: 6.42%
[24]
  viability, T/C: 6.89%
[25]
  viability, T/C: 49%
[26]
  viability, T/C: 13.3%
[27]
  viability, T/C: 6.83%
[28]
  viability, T/C: 5.52%
[29]
  viability, T/C: 7.58%
[30]
  viability, T/C: 7.98%
[31]
  viability, T/C: 59.7%
[32]
  viability, T/C: 13.9%
[33]
  viability, T/C: 7.5%
[34]
  viability, T/C: 6.04%
[35]
  viability, T/C: 7.48%
[36]
  viability, T/C: 7.66%
[37]
  viability, T/C: 52.1%
[38]
  viability, T/C: 11.5%
[39]
  viability, T/C: 8.02%
[40]
  viability, T/C: 5.7%
[41]
  viability, T/C: 5.81%
[42]
  viability, T/C: 6.85%
